{"source": "BigSolDB 2.1"}
{"smiles": "CC(C)(c1ccc(O)cc1)c1ccc(O)cc1", "values": [{"measurement": "solubility (mole fraction)", "setting": "in 1,4-dioxane, 288.15 K", "result": 0.205}, {"measurement": "solubility (mole fraction)", "setting": "in 1,4-dioxane, 293.15 K", "result": 0.224}, {"measurement": "solubility (mole fraction)", "setting": "in 1,4-dioxane, 298.15 K", "result": 0.245}, {"measurement": "solubility (mole fraction)", "setting": "in 1,4-dioxane, 303.15 K", "result": 0.264}, {"measurement": "solubility (mole fraction)", "setting": "in 1,4-dioxane, 308.15 K", "result": 0.285}, {"measurement": "solubility (mole fraction)", "setting": "in 1,4-dioxane, 313.15 K", "result": 0.307}, {"measurement": "solubility (mole fraction)", "setting": "in DMF, 273.15 K", "result": 0.298}, {"measurement": "solubility (mole fraction)", "setting": "in DMF, 278.15 K", "result": 0.308}, {"measurement": "solubility (mole fraction)", "setting": "in DMF, 283.15 K", "result": 0.324}, {"measurement": "solubility (mole fraction)", "setting": "in DMF, 288.15 K", "result": 0.342}, {"measurement": "solubility (mole fraction)", "setting": "in DMF, 293.15 K", "result": 0.361}, {"measurement": "solubility (mole fraction)", "setting": "in DMF, 298.15 K", "result": 0.383}, {"measurement": "solubility (mole fraction)", "setting": "in DMF, 303.15 K", "result": 0.409}, {"measurement": "solubility (mole fraction)", "setting": "in DMF, 308.15 K", "result": 0.43}, {"measurement": "solubility (mole fraction)", "setting": "in DMF, 313.15 K", "result": 0.452}, {"measurement": "solubility (mole fraction)", "setting": "in acetone, 273.15 K", "result": 0.293}, {"measurement": "solubility (mole fraction)", "setting": "in acetone, 278.15 K", "result": 0.301}, {"measurement": "solubility (mole fraction)", "setting": "in acetone, 283.15 K", "result": 0.311}, {"measurement": "solubility (mole fraction)", "setting": "in acetone, 288.15 K", "result": 0.321}, {"measurement": "solubility (mole fraction)", "setting": "in acetonitrile, 273.15 K", "result": 0.135}, {"measurement": "solubility (mole fraction)", "setting": "in acetonitrile, 278.15 K", "result": 0.141}, {"measurement": "solubility (mole fraction)", "setting": "in acetonitrile, 283.15 K", "result": 0.15}, {"measurement": "solubility (mole fraction)", "setting": "in acetonitrile, 288.15 K", "result": 0.16}, {"measurement": "solubility (mole fraction)", "setting": "in acetonitrile, 293.15 K", "result": 0.169}, {"measurement": "solubility (mole fraction)", "setting": "in acetonitrile, 298.15 K", "result": 0.176}, {"measurement": "solubility (mole fraction)", "setting": "in acetonitrile, 303.15 K", "result": 0.185}, {"measurement": "solubility (mole fraction)", "setting": "in acetonitrile, 308.15 K", "result": 0.196}, {"measurement": "solubility (mole fraction)", "setting": "in acetonitrile, 313.15 K", "result": 0.207}, {"measurement": "solubility (mole fraction)", "setting": "in cyclohexanone, 273.15 K", "result": 0.0936}, {"measurement": "solubility (mole fraction)", "setting": "in cyclohexanone, 278.15 K", "result": 0.111}, {"measurement": "solubility (mole fraction)", "setting": "in cyclohexanone, 283.15 K", "result": 0.126}, {"measurement": "solubility (mole fraction)", "setting": "in cyclohexanone, 288.15 K", "result": 0.142}, {"measurement": "solubility (mole fraction)", "setting": "in cyclohexanone, 293.15 K", "result": 0.158}, {"measurement": "solubility (mole fraction)", "setting": "in cyclohexanone, 298.15 K", "result": 0.176}, {"measurement": "solubility (mole fraction)", "setting": "in cyclohexanone, 303.15 K", "result": 0.195}, {"measurement": "solubility (mole fraction)", "setting": "in cyclohexanone, 308.15 K", "result": 0.215}, {"measurement": "solubility (mole fraction)", "setting": "in cyclohexanone, 313.15 K", "result": 0.235}, {"measurement": "solubility (mole fraction)", "setting": "in ethanol, 273.15 K", "result": 0.21}, {"measurement": "solubility (mole fraction)", "setting": "in ethanol, 278.15 K", "result": 0.215}, {"measurement": "solubility (mole fraction)", "setting": "in ethanol, 283.15 K", "result": 0.221}, {"measurement": "solubility (mole fraction)", "setting": "in ethanol, 288.15 K", "result": 0.227}, {"measurement": "solubility (mole fraction)", "setting": "in ethanol, 293.15 K", "result": 0.233}, {"measurement": "solubility (mole fraction)", "setting": "in ethanol, 298.15 K", "result": 0.24}, {"measurement": "solubility (mole fraction)", "setting": "in ethanol, 303.15 K", "result": 0.246}, {"measurement": "solubility (mole fraction)", "setting": "in ethanol, 308.15 K", "result": 0.253}, {"measurement": "solubility (mole fraction)", "setting": "in ethanol, 313.15 K", "result": 0.26}, {"measurement": "solubility (mole fraction)", "setting": "in ethyl acetate, 273.15 K", "result": 0.235}, {"measurement": "solubility (mole fraction)", "setting": "in ethyl acetate, 278.15 K", "result": 0.237}, {"measurement": "solubility (mole fraction)", "setting": "in ethyl acetate, 283.15 K", "result": 0.24}, {"measurement": "solubility (mole fraction)", "setting": "in ethyl acetate, 288.15 K", "result": 0.243}, {"measurement": "solubility (mole fraction)", "setting": "in ethyl acetate, 293.15 K", "result": 0.246}, {"measurement": "solubility (mole fraction)", "setting": "in ethyl acetate, 298.15 K", "result": 0.251}, {"measurement": "solubility (mole fraction)", "setting": "in ethyl acetate, 303.15 K", "result": 0.255}, {"measurement": "solubility (mole fraction)", "setting": "in ethyl acetate, 308.15 K", "result": 0.26}, {"measurement": "solubility (mole fraction)", "setting": "in ethyl acetate, 313.15 K", "result": 0.265}, {"measurement": "solubility (mole fraction)", "setting": "in formamide, 278.15 K", "result": 0.14}, {"measurement": "solubility (mole fraction)", "setting": "in formamide, 283.15 K", "result": 0.151}, {"measurement": "solubility (mole fraction)", "setting": "in formamide, 288.15 K", "result": 0.164}, {"measurement": "solubility (mole fraction)", "setting": "in formamide, 293.15 K", "result": 0.178}, {"measurement": "solubility (mole fraction)", "setting": "in formamide, 298.15 K", "result": 0.193}, {"measurement": "solubility (mole fraction)", "setting": "in formamide, 308.15 K", "result": 0.231}, {"measurement": "solubility (mole fraction)", "setting": "in formamide, 313.15 K", "result": 0.252}, {"measurement": "solubility (mole fraction)", "setting": "in isopropanol, 273.15 K", "result": 0.0503}, {"measurement": "solubility (mole fraction)", "setting": "in isopropanol, 278.15 K", "result": 0.0603}, {"measurement": "solubility (mole fraction)", "setting": "in isopropanol, 283.15 K", "result": 0.0719}, {"measurement": "solubility (mole fraction)", "setting": "in isopropanol, 288.15 K", "result": 0.0858}, {"measurement": "solubility (mole fraction)", "setting": "in isopropanol, 293.15 K", "result": 0.097}, {"measurement": "solubility (mole fraction)", "setting": "in isopropanol, 298.15 K", "result": 0.111}, {"measurement": "solubility (mole fraction)", "setting": "in isopropanol, 303.15 K", "result": 0.123}, {"measurement": "solubility (mole fraction)", "setting": "in isopropanol, 308.15 K", "result": 0.139}, {"measurement": "solubility (mole fraction)", "setting": "in isopropanol, 313.15 K", "result": 0.153}, {"measurement": "solubility (mole fraction)", "setting": "in methanol, 273.15 K", "result": 0.187}, {"measurement": "solubility (mole fraction)", "setting": "in methanol, 278.15 K", "result": 0.19}, {"measurement": "solubility (mole fraction)", "setting": "in methanol, 283.15 K", "result": 0.194}, {"measurement": "solubility (mole fraction)", "setting": "in methanol, 288.15 K", "result": 0.198}, {"measurement": "solubility (mole fraction)", "setting": "in methanol, 293.15 K", "result": 0.202}, {"measurement": "solubility (mole fraction)", "setting": "in methanol, 298.15 K", "result": 0.207}, {"measurement": "solubility (mole fraction)", "setting": "in methanol, 303.15 K", "result": 0.212}, {"measurement": "solubility (mole fraction)", "setting": "in methanol, 308.15 K", "result": 0.217}, {"measurement": "solubility (mole fraction)", "setting": "in methanol, 313.15 K", "result": 0.223}, {"measurement": "solubility (mole fraction)", "setting": "in methyl acetate, 273.15 K", "result": 0.236}, {"measurement": "solubility (mole fraction)", "setting": "in methyl acetate, 278.15 K", "result": 0.237}, {"measurement": "solubility (mole fraction)", "setting": "in methyl acetate, 283.15 K", "result": 0.239}, {"measurement": "solubility (mole fraction)", "setting": "in methyl acetate, 288.15 K", "result": 0.241}, {"measurement": "solubility (mole fraction)", "setting": "in methyl acetate, 293.15 K", "result": 0.246}, {"measurement": "solubility (mole fraction)", "setting": "in methyl acetate, 298.15 K", "result": 0.249}, {"measurement": "solubility (mole fraction)", "setting": "in methyl acetate, 303.15 K", "result": 0.253}, {"measurement": "solubility (mole fraction)", "setting": "in methyl acetate, 308.15 K", "result": 0.257}, {"measurement": "solubility (mole fraction)", "setting": "in methyl acetate, 313.15 K", "result": 0.261}, {"measurement": "solubility (mole fraction)", "setting": "in n-butanol, 273.15 K", "result": 0.0748}, {"measurement": "solubility (mole fraction)", "setting": "in n-butanol, 278.15 K", "result": 0.0833}, {"measurement": "solubility (mole fraction)", "setting": "in n-butanol, 283.15 K", "result": 0.0942}, {"measurement": "solubility (mole fraction)", "setting": "in n-butanol, 288.15 K", "result": 0.108}, {"measurement": "solubility (mole fraction)", "setting": "in n-butanol, 293.15 K", "result": 0.12}, {"measurement": "solubility (mole fraction)", "setting": "in n-butanol, 298.15 K", "result": 0.136}, {"measurement": "solubility (mole fraction)", "setting": "in n-butanol, 303.15 K", "result": 0.149}, {"measurement": "solubility (mole fraction)", "setting": "in n-butanol, 308.15 K", "result": 0.163}, {"measurement": "solubility (mole fraction)", "setting": "in n-butanol, 313.15 K", "result": 0.181}, {"measurement": "solubility (mole fraction)", "setting": "in n-propanol, 273.15 K", "result": 0.176}, {"measurement": "solubility (mole fraction)", "setting": "in n-propanol, 278.15 K", "result": 0.18}, {"measurement": "solubility (mole fraction)", "setting": "in n-propanol, 283.15 K", "result": 0.188}, {"measurement": "solubility (mole fraction)", "setting": "in n-propanol, 288.15 K", "result": 0.195}, {"measurement": "solubility (mole fraction)", "setting": "in n-propanol, 293.15 K", "result": 0.2}, {"measurement": "solubility (mole fraction)", "setting": "in n-propanol, 298.15 K", "result": 0.207}, {"measurement": "solubility (mole fraction)", "setting": "in n-propanol, 303.15 K", "result": 0.214}, {"measurement": "solubility (mole fraction)", "setting": "in n-propanol, 308.15 K", "result": 0.22}, {"measurement": "solubility (mole fraction)", "setting": "in n-propanol, 313.15 K", "result": 0.225}, {"measurement": "solubility (mole fraction)", "setting": "in sec-butanol, 273.15 K", "result": 0.0342}, {"measurement": "solubility (mole fraction)", "setting": "in sec-butanol, 278.15 K", "result": 0.0397}, {"measurement": "solubility (mole fraction)", "setting": "in sec-butanol, 283.15 K", "result": 0.0472}, {"measurement": "solubility (mole fraction)", "setting": "in sec-butanol, 288.15 K", "result": 0.0566}, {"measurement": "solubility (mole fraction)", "setting": "in sec-butanol, 293.15 K", "result": 0.0654}, {"measurement": "solubility (mole fraction)", "setting": "in sec-butanol, 298.15 K", "result": 0.0735}, {"measurement": "solubility (mole fraction)", "setting": "in sec-butanol, 303.15 K", "result": 0.083}, {"measurement": "solubility (mole fraction)", "setting": "in sec-butanol, 308.15 K", "result": 0.093}, {"measurement": "solubility (mole fraction)", "setting": "in sec-butanol, 313.15 K", "result": 0.104}]}
